A short description of data set [1]: EtSA in gastric tissues (LC/ESI/MS/MS). Format: in vivo, INS-GAS mice. The conditions noted are these: EtSA in drinking water. How it is done: FIGS. 16A, 16B, 16C, 16D, 16E, and 16F show INS-GAS mice (8 per group) were infected or not with H. pylori strain PMS for 8 weeks and then treated with EtSA (7.5 mg/ml) one week after infection. (A) EtSA concentration in gastric tissues; **P<0.01, ****P<0.0001 vs. mice without EtSA. (B) Frequency of diagnoses. IMC, intramucosal carcinoma; LGD, low grade dysplasia; ND, no dysplasia. (C) Quantification of extent of dysplasia and cancer as a percentage of tissue sections. (D) H&E staining of INS-GAS mouse stomach tissues, showing carcinoma in an infected mouse; scale bar, 50 μm. In B and C, *P<0.05, **P<0.01 vs. infected mice.
As discussed further in the Examples, the human gastric epithelial cell line AGS was infected with Hp PMSS1±10 mM EtSA. FVB/N insulin-gastrin (INS-GAS) mice and Mongolian gerbils were infected for 8 wk with Hp PMSS1 and 7.13, respectively; EtSA (0.75% in water) was given to animals beginning one wk post-infection. Lys-LG adducts, a marker of electrophile reactions, and EtSA were quantified by LC/EST/MS/MS. Histology was analyzed on H&E staining. DNA damage was evaluated by pH2AX staining. Hp colonization was quantified by culture. Mucosal immune responses were determined by RNA profiling and by Luminex assay. Mice were imaged using PET/CT with ^18F-FDG (inflammation marker) and ^18F—NaF (tumor marker). […]

For data set [2], the system named is gastric uptake of 18F-NaF (tumor marker) and 18F-FDG (inflammation marker). Put plainly: PET/CT imaging with 18F-FDG and 18F-NaF. The settings on record: Hp-infected mice, EtSA. Format: in vivo. How it is done: (§1) As discussed further in the Examples, the human gastric epithelial cell line AGS was infected with Hp PMSS1±10 mM EtSA. FVB/N insulin-gastrin (INS-GAS) mice and Mongolian gerbils were infected for 8 wk with Hp PMSS1 and 7.13, respectively; EtSA (0.75% in water) was given to animals beginning one wk post-infection. Lys-LG adducts, a marker of electrophile reactions, and EtSA were quantified by LC/EST/MS/MS. Histology was analyzed on H&E staining. DNA damage was evaluated by pH2AX staining. Hp colonization was quantified by culture. Mucosal immune responses were determined by RNA profiling and by Luminex assay. Mice were imaged using PET/CT with ^18F-FDG (inflammation marker) and ^18F—NaF (tumor marker).

For data set [3], the system named is Lysyl-LG adducts in AGS cells. Put plainly: Lysyl-LG adducts in AGS cells infected with H. pylori PMSS1. Format: cell-based, human. As to the method:
FIGS. 15A, 15B, and 15C are graphs showing C57BL/6 (A) or INS-GAS mice (B) were infected for 8 weeks with H. pylori PMSS1. Lysyl-LG adducts were measured in the gastric tissues by LC/ESI/MS/MS. *P<0.05. (C) Lysyl-LG adducts concentration was determined in AGS cells infected (plain bars) or not (open bars) with H. pylori PMSS1 for 24 h, in the presence or absence of EtSA. *P<0.05 vs. uninfected cells. § P<0.05 vs. infected cells without EtSA.
[…] FVB/N insulin-gastrin (INS-GAS) mice and Mongolian gerbils were infected for 8 wk with Hp PMSS1 and 7.13, respectively; EtSA (0.75% in water) was given to animals beginning one wk post-infection. Lys-LG adducts, a marker of electrophile reactions, and EtSA were quantified by LC/EST/MS/MS. Histology was analyzed on H&E staining. DNA damage was evaluated by pH2AX staining. Hp colonization was quantified by culture. Mucosal immune responses were determined by RNA profiling and by Luminex assay. Mice were imaged using PET/CT with ^18F-FDG (inflammation marker) and ^18F—NaF (tumor marker).
To further determine whether ethylsalicylamine (EtSA) prevents the formation of bifunctional electrophiles during H. pylori infection, the […] were treated or not with EtSA 30 min prior to the infection.

The next data set has as its system mucosal immune responses. Put plainly: Gastritis and mucosal cytokines/chemokines in infected INS-GAS mice. The settings on record: EtSA. The format is in vivo. How it is done: as §1
The subject of a further data set is DNA damage (pH2AX). Put plainly: DNA damage by pH2AX staining in infected mice. Format: in vivo. The settings on record: infected mice with EtSA treatment; p<0.05. As to the method: as §1
Data set [4] in a line: Tolerability of EtHOBA in control mice (body weight, organs). The format is in vivo. How it is done:
FIGS. 3A and 3B show data from C57BL/6 mice were treated or not with various concentrations of EtHOBA. (A) Body weight was assessed every day. (B) After 6 days, mice were euthanized and EtHOBA was measured in the colon. n=5 mice/group.
The present inventors analyzed the effect of various concentrations of EtHOBA and its bioavailability in control mice. […] After 6 days of treatment, EtHOBA concentrations in the colon were analyzed using liquid chromatography electrospray ionization tandem mass spectrometry (LC/EST/MS/MS).

With `CCc1ccc(O)c(CN)c1` [EtHOBA, 5-ethyl-2-hydroxybenzylamine], in data set [1], the “EtSA bioavailability in the stomach” value is on record as “bioavailable in the stomach”. In addition, in data set [2], the “gastric uptake of the tumor marker 18F-NaF” value is on record as “decreased” and the “uptake of the inflammation marker 18F-FDG” value is on record as “not modified”. Further, the Lys-LG adduct levels result in data set [3] (AGS cells infected with Hp PMSS1 ± 10 mM EtSA) is on record as “inhibited”. In data set [3] (H. pylori-infected AGS cells, 24 h, 10 μM EtSA), the lysyl-LG adduct concentration result is recorded as “completely attenuated”. Besides, in the data set with mucosal immune responses, the histologic gastritis entry is “not affected”; the “tissue cytokines and chemokines” value is reported as “not affected”. Besides, the “decrease of DNA damage” value in the data set with DNA damage (pH2AX) worked out at 71%. For the same molecule, in data set [4] (3.7 mg/ml EtHOBA, control mice, 6 days), the Body weight result was “lost weight on day 1, but did not lose additional weight and did not die”. Also, the Body weight result in data set [4] (0.37-1.5 mg/ml EtHOBA, compared to untreated mice) is “no loss of body weight”. Also, in data set [4] (1.5 or 3.7 mg/ml EtHOBA), the colon weight/length entry is reported as “no change in colon weight/length” and the “macroscopic evidence of organ damage” value is given as “no macroscopic evidence of organ damage”.

Source of the values: patent US11696903B2, “Compounds and methods for scavenging dicarbonyl electrophiles” (VANDERBILT UNIVERSITY, priority 2019, dated 2023).
